In BindingDB's records for patent US12552758 (Neophore, 2026):

Assays:
[1] = target: T1, Mismatch repair endonuclease PMS2 (UniProt P54278); assay: Fluorescence Polarisation Assay for PMS2
T1 sequence (P54278 whole entry): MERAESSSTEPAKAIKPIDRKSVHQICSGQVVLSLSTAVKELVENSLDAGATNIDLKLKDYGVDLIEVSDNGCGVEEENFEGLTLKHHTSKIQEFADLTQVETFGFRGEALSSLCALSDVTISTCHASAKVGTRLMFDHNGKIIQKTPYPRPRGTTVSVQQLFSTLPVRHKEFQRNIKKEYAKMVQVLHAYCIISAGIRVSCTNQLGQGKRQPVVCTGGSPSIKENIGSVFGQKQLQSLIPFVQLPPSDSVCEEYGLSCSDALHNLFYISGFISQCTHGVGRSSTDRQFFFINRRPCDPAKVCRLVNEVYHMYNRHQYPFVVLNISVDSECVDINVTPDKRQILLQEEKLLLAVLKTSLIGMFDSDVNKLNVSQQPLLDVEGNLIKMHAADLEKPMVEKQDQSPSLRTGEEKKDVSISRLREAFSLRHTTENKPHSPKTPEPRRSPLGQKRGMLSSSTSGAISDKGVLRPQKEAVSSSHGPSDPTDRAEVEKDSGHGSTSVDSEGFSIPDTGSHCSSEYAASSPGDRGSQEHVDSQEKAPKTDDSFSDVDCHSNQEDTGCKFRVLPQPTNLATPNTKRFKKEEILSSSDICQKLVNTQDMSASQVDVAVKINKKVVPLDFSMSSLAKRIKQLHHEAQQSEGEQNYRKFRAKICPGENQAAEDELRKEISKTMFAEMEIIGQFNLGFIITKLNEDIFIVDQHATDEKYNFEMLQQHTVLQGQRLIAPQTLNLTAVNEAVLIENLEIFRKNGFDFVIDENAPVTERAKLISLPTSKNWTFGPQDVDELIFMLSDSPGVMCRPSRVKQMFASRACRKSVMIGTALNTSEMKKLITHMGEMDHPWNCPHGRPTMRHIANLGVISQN
Protocol: 20 μL assay buffer was added to all wells in columns 1 and 24 (column 24 only for single point screening) using a MultiDrop Combi (ThermoFisher). Plates were centrifuged for 1 minute at 250×g and were incubated at room temperature for 30 minutes prior to the addition of 20 μL of 2×([…]) of 5-((5-(4-((2-(2,4-dihydroxy-5-isopropylbenzoyl)isoindolin-5-yl)methyl)piperazin-1-yl)pentyl)carbamoyl)-2-(6-(dimethylamino)-3-(dimethyliminio)-3H-xanthen-9-yl)benzoate (referred to hereinafter as “probe compound”) in assay buffer (prepared from a 100 μM DMSO stock) with a MultiDrop Combi (ThermoFisher). The final concentration of N-terminal PMS2 was 10 nM and the final concentration of probe compound was 5 nM.

[2] = target: T2, DNA mismatch repair protein Mlh1 (UniProt P40692); assay: Fluorescence Polarisation Assay for MLH1
T2 sequence (P40692 whole entry): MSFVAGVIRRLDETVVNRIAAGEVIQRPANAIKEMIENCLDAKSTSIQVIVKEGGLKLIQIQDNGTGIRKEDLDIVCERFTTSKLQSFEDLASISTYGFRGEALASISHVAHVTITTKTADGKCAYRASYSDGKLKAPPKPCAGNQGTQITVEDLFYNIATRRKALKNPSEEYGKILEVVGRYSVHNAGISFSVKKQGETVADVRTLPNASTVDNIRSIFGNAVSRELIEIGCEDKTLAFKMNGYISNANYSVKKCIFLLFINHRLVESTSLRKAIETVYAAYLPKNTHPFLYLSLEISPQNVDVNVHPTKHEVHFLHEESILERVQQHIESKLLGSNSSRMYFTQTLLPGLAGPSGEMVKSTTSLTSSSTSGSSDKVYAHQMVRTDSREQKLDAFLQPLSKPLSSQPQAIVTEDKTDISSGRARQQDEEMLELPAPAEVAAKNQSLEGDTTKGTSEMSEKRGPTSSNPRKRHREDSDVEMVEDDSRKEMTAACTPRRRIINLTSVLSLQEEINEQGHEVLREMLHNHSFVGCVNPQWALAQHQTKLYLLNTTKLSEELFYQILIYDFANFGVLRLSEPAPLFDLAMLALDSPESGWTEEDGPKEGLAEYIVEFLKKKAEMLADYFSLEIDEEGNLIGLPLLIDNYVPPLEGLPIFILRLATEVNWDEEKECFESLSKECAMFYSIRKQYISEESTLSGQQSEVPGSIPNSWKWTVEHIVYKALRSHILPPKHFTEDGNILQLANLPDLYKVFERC
Protocol: 20 μL assay buffer was added to all wells in columns 1 and 24 (column 24 only for single point screening) using a MultiDrop Combi (ThermoFisher). Plates were centrifuged for 1 minute at 250×g and were incubated at room temperature for 30 minutes prior to the addition of 20 μL of 2×(10 nM) of 5-((5-(4-((2-(2,4-dihydroxy-5-isopropylbenzoyl)isoindolin-5-yl)methyl)piperazin-1-yl)pentyl)carbamoyl)-2-(6-(dimethylamino)-3-(dimethyliminio)-3H-xanthen-9-yl)benzoate (referred to hereinafter as “probe compound”) in assay buffer (prepared from a 100 μM DMSO stock) with a MultiDrop Combi (ThermoFisher). The final concentration of N-terminal MLH1 was 100 nM and the final concentration of probe compound was 5 nM.

Structure (SMILES)	IC50 [1] [µM]	IC50 [2] [µM]
Cc1c(O)cc(O)c(C(=O)N2Cc3cccnc3C2)c1OCc1ccccc1 [US12552758, Example 30]	< 1	> 10
Cc1c(O)cc(O)c(C(=O)N2Cc3cccc(Br)c3C2)c1OCc1ccccc1 [US12552758, Example 38]	< 1	> 10
